Type in all cases: in vivo
Common to all, as to settings: Dexamethasone oral 1 mg/kg, 20 times between day 28 and 57

The subject of one experiment is TNF-α. The experiment in a line: Pro-inflammatory cytokines in sera of CIA Collagen mice (ELISA, day 58): TNF-α. The protocol:
(§1) Critical administration 124 disclosed herein is further described below. Q5D represents administration 5 days a part. TBSV·pLIp1 and wt TBSV shown in Table 1 may include liquid form that are not sterile and stored in −20° C. TBSV·pLIp1 may be given at the dose of 50 μG/100 μL Male DBA/1J mice (8 weeks; Envigo, Italy) may be used for these studies. Mice may be housed in individual cages (two for each group) and maintained under a 12:12 light-dark cycle at 21° C.±1° C. and 50%±5% humidity. The animals may be acclimated to their environment for 1 week and had ad libitum access to tap water and standard rodent diet. All animal experiments may be complied with regulations in Italy (D.M. 116192), Europe (O.J of E.C. L 358/112/18/1986), and the United States (Animal Welfare Assurance Number A5594-01, Department of Health and Human Services, USA). […] Arthritis was assessed by using qualitative severity score system and hind paw volume (mL) measured by a plethysmometer on day 20, 22, 24, 26, 28, 30, 32, 34, 36, 38, 40, 42, 44, 46 48, 50, 52, 54, 56 and 58. Body weight was recorded on day 0, 6, 13, 16, 18, 20, 22, 24, 26, 28, 30, 32, 34, 36, 38, 40, 42, 44, 46, 50, 52, 54, 56 and 58. […]

The subject of another experiment is IL-1β. Briefly: Pro-inflammatory cytokines in sera of CIA Collagen mice (ELISA, day 58): IL-1β. The protocol:
as §1
A general note: ELISA stands for enzyme-linked immunosorbent assay.

In a further experiment the test system is IL-6. The experiment in a line: Pro-inflammatory cytokines in sera of CIA Collagen mice (ELISA, day 58): IL-6. The protocol:
as §1

For another experiment, the system named is IL-12p70. The experiment in a line: Pro-inflammatory cytokines in sera of CIA Collagen mice (ELISA, day 58): IL-12p70. The protocol:
as §1

The values below come from US12527849B2, “Apparatus for determining administration form of a composition of an engineered virus-based nanoparticle for a treatment of an autoimmune condition” (Diamante Srl, priority 2021, dated 2026).

Molecules are shown by their SMILES.

Take `C[C@@H]1C[C@H]2[C@@H]3CCC4=CC(=O)C=C[C@]4(C)[C@@]3(F)[C@@H](O)C[C@]2(C)[C@@]1(O)C(=O)CO` [Dexamethasone, dexamethasone]: the “TNF-α, % of reduction vs CIA Collagen” value in the experiment on TNF-α was determined as 12.02%. Also, the “IL-1β, % of reduction vs CIA Collagen” value in the experiment on IL-1β turned out to be 22.74%. Further, the “IL-6, % of reduction vs CIA Collagen” value with IL-6 was found to be 40.13%. The “IL-12p70, % of reduction vs CIA Collagen” value in the experiment with IL-12p70 worked out at 37.95%.
